Reference: patent US9687479B2, “Multisubstituted aromatic compounds as serine protease inhibitors” (VERSEON CORPORATION, priority 2013, dated 2017)

These compounds were tested against Human thrombin (Homo sapiens (Human), UniProt P00734) (assay: Thrombin protease activity inhibition assay (chromogenic substrate S-2238)). Details: 3 nM thrombin, 125 μM S-2238, 10 min pre-incubation, RT.
Format: biochemical
Description: The thrombin activity reported herein (e.g., Table A) was obtained as follows. […] Thrombin was assayed in buffer containing 0.05 M Tris (pH 7.4), 0.015 M NaCl and 0.01% PEG-8000. The final concentration of enzyme used was 3 nM thrombin. […] All assays were performed in 96-well microtiter plates at room temperature (RT). […] Inhibitor IC50 values were determined by adding test compound as ten point, three-fold serial dilutions in buffer solution, as known in the art. The plate was read at 10 minutes after substrate addition. The IC50 was calculated by plotting the percent (%) inhibition against compound concentration and fitting the data to a constrained four parameter sigmoidal curve, as known in the art.

`CC(C)(CO)C(=O)n1nc(-c2ccc[nH]c2=O)cc1NCc1ccc(Cl)s1` [Cmpd 91, 3-(5-[(5-chlorothiophen-2-yl)methyl]amino-1-(3-hydroxy-2,2-dimethylpropanoyl)-1H-pyrazol-3-yl)-1,2-dihydropyridin-2-one] and `COCC(C)(C)C(=O)n1nc(-c2ccc[nH]c2=O)cc1NCc1ccc(Cl)s1` [Cmpd 96, 3-(5-[(5-chlorothiophen-2-yl)methyl]amino-1-(3-methoxy-2,2-dimethylpropanoyl)-1H-pyrazol-3-yl)-1,2-dihydropyridin-2-one] cannot be ordered by IC50: < 100 nM for the first, < 100 nM for the second.

`CC(C)(CO)C(=O)n1nc(-c2cccn(Cc3cccs3)c2=O)cc1NCc1ccc(Cl)s1` [Cmpd 95, 3-(5-[(5-chlorothiophen-2-yl)methyl]amino-1-(3-hydroxy-2,2-dimethylpropanoyl)-1H-pyrazol-3-yl)-1-(thiophen-2-ylmethyl)-1,2-dihydropyridin-2-one] and `COCC(C)(C)C(=O)n1nc(-c2cccn(Cc3ccoc3)c2=O)cc1NCc1ccc(Cl)s1` [Cmpd 99, 3-(5-[(5-chlorothiophen-2-yl)methyl]amino-1-(3-methoxy-2,2-dimethylpropanoyl)-1H-pyrazol-3-yl)-1-(furan-3-ylmethyl)-1,2-dihydropyridin-2-one] cannot be ordered by IC50: < 100 nM for the first, < 100 nM for the second.

`COCC(C)(C)C(=O)n1nc(-c2cccn(CCN3CCOCC3)c2=O)cc1NCc1ccc(Cl)s1` [Cmpd 107, 3-(5-[(5-chlorothiophen-2-yl)methyl]amino-1-(3-methoxy-2,2-dimethylpropanoyl)-1H-pyrazol-3-yl)-1-[2-(morpholin-4-yl)ethyl]-1,2-dihydropyridin-2-one] and `O=C(c1cccc2c1OCCO2)n1nc(-c2cccn(CCN3CCOCC3)c2=O)cc1NCc1ccc(Cl)s1` [Cmpd 119, 3-(5-[(5-chlorothiophen-2-yl)methyl]amino-1-[(2,3-dihydro-1,4-benzodioxin-5-yl)carbonyl]-1H-pyrazol-3-yl)-1-[2-(morpholin-4-yl)ethyl]-1,2-dihydropyridin-2-one] cannot be ordered by IC50: < 100 nM for the first, < 100 nM for the second.

`O=C(c1cccc2c1OCCO2)n1nc(-c2ccc[nH]c2=O)cc1NCc1ccc(Cl)s1` [Cmpd 108, 3-(5-[(5-chlorothiophen-2-yl)methyl]amino-1-[(2,3-dihydro-1,4-benzodioxin-5-yl)carbonyl]-1H-pyrazol-3-yl)-1,2-dihydropyridin-2-one] and `Cn1cccc(-c2cc(NCc3ccc(Cl)s3)n(C(=O)c3cccc4c3OCCO4)n2)c1=O` [Cmpd 120, 3-(5-[(5-chlorothiophen-2-yl)methyl]amino-1-[(2,3-dihydro-1,4-benzodioxin-5-yl)carbonyl]-1H-pyrazol-3-yl)-1-methyl-1,2-dihydropyridin-2-one] cannot be ordered by IC50: < 100 nM for the first, < 100 nM for the second.

`O=C(c1cccc2c1OCCO2)n1nc(-c2cccn(Cc3ccco3)c2=O)cc1NCc1ccc(Cl)s1` [Cmpd 110, 3-(5-[(5-chlorothiophen-2-yl)methyl]amino-1-[(2,3-dihydro-1,4-benzodioxin-5-yl)carbonyl]-1H-pyrazol-3-yl)-1-(furan-2-ylmethyl)-1,2-dihydropyridin-2-one] and `O=C(c1cccc2c1OCCO2)n1nc(-c2cccn(Cc3ccoc3)c2=O)cc1NCc1ccc(Cl)s1` [Cmpd 111, 3-(5-[(5-chlorothiophen-2-yl)methyl]amino-1-[(2,3-dihydro-1,4-benzodioxin-5-yl)carbonyl]-1H-pyrazol-3-yl)-1-(furan-3-ylmethyl)-1,2-dihydropyridin-2-one] cannot be ordered by IC50: < 100 nM for the first, < 100 nM for the second.

`O=C(c1cccc2c1OCCO2)n1nc(-c2cccn(Cc3cccnn3)c2=O)cc1NCc1ccc(Cl)s1` [Cmpd 112, 3-(5-[(5-chlorothiophen-2-yl)methyl]amino-1-[(2,3-dihydro-1,4-benzodioxin-5-yl)carbonyl]-1H-pyrazol-3-yl)-1-(pyridazin-3-ylmethyl)-1,2-dihydropyridin-2-one] and `O=C(c1cccc2c1OCCO2)n1nc(-c2cccn(Cc3cccnc3)c2=O)cc1NCc1ccc(Cl)s1` [Cmpd 114, 3-(5-[(5-chlorothiophen-2-yl)methyl]amino-1-[(2,3-dihydro-1,4-benzodioxin-5-yl)carbonyl]-1H-pyrazol-3-yl)-1-(pyridin-3-ylmethyl)-1,2-dihydropyridin-2-one] cannot be ordered by IC50: < 100 nM for the first, < 100 nM for the second.

`O=C(c1cccc2c1OCCO2)n1nc(-c2cccn(Cc3ccncc3)c2=O)cc1NCc1ccc(Cl)s1` [Cmpd 115, 3-(5-[(5-chlorothiophen-2-yl)methyl]amino-1-[(2,3-dihydro-1,4-benzodioxin-5-yl)carbonyl]-1H-pyrazol-3-yl)-1-(pyridin-4-ylmethyl)-1,2-dihydropyridin-2-one] and `O=C(c1cccc2c1OCCO2)n1nc(-c2cccn(Cc3ccsc3)c2=O)cc1NCc1ccc(Cl)s1` [Cmpd 118, 3-(5-[(5-chlorothiophen-2-yl)methyl]amino-1-[(2,3-dihydro-1,4-benzodioxin-5-yl)carbonyl]-1H-pyrazol-3-yl)-1-(thiophen-3-ylmethyl)-1,2-dihydropyridin-2-one] cannot be ordered by IC50: < 100 nM for the first, < 100 nM for the second.

`COc1ccc(C(=O)n2nc(-c3ccc[nH]c3=O)cc2NCc2ccc(Cl)s2)c(OC)c1` [Cmpd 121, 3-(5-[(5-chlorothiophen-2-yl)methyl]amino-1-[(2,4-dimethoxyphenyl)carbonyl]-1H-pyrazol-3-yl)-1,2-dihydropyridin-2-one] and `COc1ccc(C(=O)n2nc(-c3cccn(Cc4cccs4)c3=O)cc2NCc2ccc(Cl)s2)c(OC)c1` [Cmpd 129, 3-(5-[(5-chlorothiophen-2-yl)methyl]amino-1-[(2,4-dimethoxyphenyl)carbonyl]-1H-pyrazol-3-yl)-1-(thiophen-2-ylmethyl)-1,2-dihydropyridin-2-one] cannot be ordered by IC50: < 100 nM for the first, < 100 nM for the second.

Going from `COc1ccc(C(=O)n2nc(-c3cccn(Cc4cccnn4)c3=O)cc2NCc2ccc(Cl)s2)c(OC)c1` [Cmpd 124, 3-(5-[(5-chlorothiophen-2-yl)methyl]amino-1-[(2,4-dimethoxyphenyl)carbonyl]-1H-pyrazol-3-yl)-1-(pyridazin-3-ylmethyl)-1,2-dihydropyridin-2-one] to `COc1ccc(C(=O)n2nc(-c3cccn(Cc4ncccn4)c3=O)cc2NCc2ccc(Cl)s2)c(OC)c1` [Cmpd 128, 3-(5-[(5-chlorothiophen-2-yl)methyl]amino-1-[(2,4-dimethoxyphenyl)carbonyl]-1H-pyrazol-3-yl)-1-(pyrimidin-2-ylmethyl)-1,2-dihydropyridin-2-one], the IC50 rises from < 100 nM to > 100000 nM.

`COc1ccc(C(=O)n2nc(-c3cccn(Cc4ccncc4)c3=O)cc2NCc2ccc(Cl)s2)c(OC)c1` [Cmpd 127, 3-(5-[(5-chlorothiophen-2-yl)methyl]amino-1-[(2,4-dimethoxyphenyl)carbonyl]-1H-pyrazol-3-yl)-1-(pyridin-4-ylmethyl)-1,2-dihydropyridin-2-one] and `COc1ccc(C(=O)n2nc(-c3cccn(Cc4ccsc4)c3=O)cc2NCc2ccc(Cl)s2)c(OC)c1` [Cmpd 130, 3-(5-[(5-chlorothiophen-2-yl)methyl]amino-1-[(2,4-dimethoxyphenyl)carbonyl]-1H-pyrazol-3-yl)-1-(thiophen-3-ylmethyl)-1,2-dihydropyridin-2-one] cannot be ordered by IC50: < 100 nM for the first, < 100 nM for the second.

In the case of `COCCn1cccc(-c2cc(NCc3ccc(Cl)s3)n(C(=O)c3ccccc3OC)n2)c1=O` [Cmpd 133, 3-(5-[(5-chlorothiophen-2-yl)methyl]amino-1-[(2-methoxyphenyl)carbonyl]-1H-pyrazol-3-yl)-1-(2-methoxyethyl)-1,2-dihydropyridin-2-one], the IC50 is reported as < 100 nM.
